Source: patent US8920793B2, “Biodegradable PAOX polymer particle with cationic property” (Industrial Cooperation Foundation Chonbuk National …, priority 2011, dated 2014)

Columns and labels:
[1] = oral intake; cited from earlier work
[2] = test system: acute liver failure induced by acetaminophen (APAP); assay: ALT assay in mouse models of APAP-induced acute liver failure; type: in vivo; conditions: 10 ug of free PEN, 1 hour before APAP
Description: On the assumption that the PAOX polymers rapidly deliver drugs to the cytoplasm due to high hydrolysis rate and proton sponge effects, which leads to more rapid treatment, mouse models of acute liver failure (ALF) were used as experimental models, and pentoxifylline (PEN) was used as a drug model.
In order to investigate the cytotoxicity of PAOX-PEN particles prepared by the method as described in the above section 7, a tetrazolium-based colorimetric MTT assay was performed. Moreover, an alanine transaminase (ALT) assay, which is mainly used for evaluation of liver functions, was performed to evaluate the effect of PAOX-PEN particles in terms of the amount of drug loaded in PAOX-PEN particles and daily dosages.
6-week-old BALB/c female mice were used for the experiments and classified into each group. The PAOX-PEN particles were dispersed in 10 mg/mL (PBS), and each of 50 μL, 100 μL, and 200 μL of the resulting solution was injected into mouse tail veins. In the case of free PEN, the drug solution was administered with the calculation of dose and, only PBS was administered to the negative control groups. After 1 hour, 200 μL of APAP in a concentration of 25 mg/mL was injected intraperitoneally to induce acute liver failure. The mice were sacrificed 10 hours later, and blood was taken from the heart. […]

RAW 264.7 cells = assay: Catalase delivery: PMA-induced hydrogen peroxide, DCFH-DA fluorescence by flow cytometry; type: cell-based; conditions: pretreatment 12 hours, then PMA stimulation
Description: To investigate the ability of PAOX particles to deliver protein drugs, catalase was used as a model protein drug. RAW 264.7 cells (1×10^6 cells) were pretreated with catalase, catalase-loaded PAOX particles, catalase-loaded PLGA particles or empty PAOX particles for 12 hours and then stimulated with 1 μg of PMA (phorbol-12-myristate-13-acetate) to induce the production of hydrogen peroxide. PMA was used to stimulate cells for the production of reactive oxygen species including hydrogen peroxide. Then, DCFH-DA (dichlorofluorescin-diacetate) was added to each well and incubated for 30 minutes. The efficacy of PAOX particles to deliver catalase to cells was evaluated by measuring the intensity of the fluorescence produced by DCFH-DA with a flow cytometry caliber (Becton Dickinson, US).

OCC1CCC(CO)CC1 (stereo not drawn) [1,4-cyclohexanedimethanol]
LD50 [1]: 3,200 mg/kg

CC(=O)CCCCn1c(=O)c2c(ncn2C)n(C)c1=O [free PEN, pentoxifylline]
ALT reduction effect [2]: no ALT reduction effects

B1: catalase (protein, UniProt P00432 2-527, looked up)
Catalase: ADNRDPASDQMKHWKEQRAAQKPDVLTTGGGNPVGDKLNSLTVGPRGPLLVQDVVFTDEMAHFDRERIPERVVHAKGAGAFGYFEVTHDITRYSKAKVFEHIGKRTPIAVRFSTVAGESGSADTVRDPRGFAVKFYTEDGNWDLVGNNTPIFFIRDALLFPSFIHSQKRNPQTHLKDPDMVWDFWSLRPESLHQVSFLFSDRGIPDGHRHMNGYGSHTFKLVNANGEAVYCKFHYKTDQGIKNLSVEDAARLAHEDPDYGLRDLFNAIATGNYPSWTLYIQVMTFSEAEIFPFNPFDLTKVWPHGDYPLIPVGKLVLNRNPVNYFAEVEQLAFDPSNMPPGIEPSPDKMLQGRLFAYPDTHRHRLGPNYLQIPVNCPYRARVANYQRDGPMCMMDNQGGAPNYYPNSFSAPEHQPSALEHRTHFSGDVQRFNSANDDNVTQVRTFYLKVLNEEQRKRLCENIAGHLKDAQLFIQKKAVKNFSDVHPEYGSRIQALLDKYNEEKPKNAVHTYVQHGSHLSAREKANL
inhibitory effect on PMA-induced fluorescence (RAW 264.7 cells): no inhibitory effects
